Measured values: patent publication US8636951B2, “Bio-terrorism counteraction using ozone and hydrogen peroxide” (priority 2010, dated 2014)

Tested on: Bacillus subtilis
Assay type: cell-based

Row | SMILES | A: count of viable Bacillus colonies at 10 dilution | B: count of viable Bacillus colonies at 100 dilution | C: count of viable Bacillus colonies at 1000 dilution | D: count of viable Bacillus colonies at 10000 dilution | Log10 RED
1 | O=[O+][O-] [ozone] | TNTCT | NTC |  |  | 
2 | OO [hydrogen peroxide] | TNTCT | NTC | 210 | 12 | 0 Log10
